Test results published in patent US20250134890A1, “ANTIMALARIAL HEXAHYDROPYRIMIDINE ANALOGUES” (UCB BIOPHARMA SRL, priority 2022, published 2025).
Where a name gives a salt, the structure may show the parent alone. Read-outs that look alike come from different tables or passages of the source.

System: Plasmodium falciparum: 3D7 strain
Test: P. falciparum 3D7 asexual blood stage assay (SYBR green readout)
Type: cell-based
Settings: Plasmodium falciparum, P. falciparum 3D7 in human erythrocytes, 72 h incubation, SYBR green fluorescence
In short: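 3D7-infected erythrocytes (5% haematocrit, 0.5% parasitaemia) were exposed 72 h at 37 °C under 1% O2/3% CO2 to a 20-point titration (50,000-15 nM final, 0.5% DMSO). Parasite DNA was read by SYBR green fluorescence after overnight lysis. Percent inhibition was set against mefloquine and DMSO, and EC50 came from a biphasic two-site fit.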

SMILES	IC50 (3D7, Erythrocyte, 72 h) [nM]	IC50 (Erythrocyte, read-out: IC50) [nM]
C[C@@H]1C[C@@H](N2C(=N)N[C@](C)(c3cccc(-c4ccc(C5CC5)nc4)c3Cl)CC2=O)CCS1(=O)=O (relative stereo) [Example 68, (6S)-6-[2-Chloro-3-(6-cyclopropyl-pyridin-3-yl)phenyl]-2-imino-6-methyl-3-[(2R*,4S*)-2-methyl-1,1-dioxothian-4-yl]hexahydro-pyrimidin-4-one hydrochloride]	1140	
CN1CCC(N2C(=N)N[C@](C)(c3cccc(-c4ccc(OC(F)(F)F)cc4Cl)c3Cl)CC2=O)CC1 [Example 91, (6S)-6-{2-Chloro-3-[2-chloro-4-(trifluoromethoxy)phenyl]phenyl}-2-imino-6-methyl-3-(1-methyl-piperidin-4-yl)hexahydropyrimidin-4-one]		6400
Cc1cc(-c2cccc([C@]3(C)CC(=O)N([C@H]4CCO[C@@H](C)C4)C(=N)N3)c2Cl)n(C)n1 [Example 52, (6S)-6-[2-Chloro-3-(2,5-dimethyl-pyrazol-3-yl)phenyl]-2-imino-6-methyl-3-[(2S,4S)-2-methyl-tetrahydropyran-4-yl]hexahydro-pyrimidin-4-one trifluoroacetic acid salt]	438	
C[C@@]1(c2cccc(-c3cnn(CC(F)(F)F)c3)c2Cl)CC(=O)N([C@@H]2CCC(F)(F)[C@H](O)C2)C(=N)N1 (relative stereo) [Example 84, (6S)-6-{2-Chloro-3-[1-(2,2,2-trifluoroethyl)pyrazol-4-yl]phenyl}-3-[(1R*,3R*)-4,4-difluoro-3-hydroxycyclohexyl]-2-imino-6-methylhexahydropyrimidin-4-one hydrochloride]	339	
C[C@@H]1C[C@H](N2C(=N)N[C@](C)(c3cccc(-c4cccc(Cl)c4)c3Cl)CC2=O)CCN1 (relative stereo) [Example 101, (6S)-6-[2-Chloro-3-(3-chloro-phenyl)phenyl]-2-imino-6-methyl-3-[(2R*,4R*)-2-methylpiperidin-4-yl]hexahydropyrimidin-4-one hydrochloride]	392	
C[C@@]1(c2cccc(-c3ccc(C4CC4)nc3)c2Cl)CC(=O)N([C@@H]2CCC(F)(F)[C@H](O)C2)C(=N)N1 (relative stereo) [Example 98, (6S)-6-[2-Chloro-3-(6-cyclopropyl-pyridin-3-yl)phenyl]-3-[(1R*,3R*)-4,4-difluoro-3-hydroxycyclohexyl]-2-imino-6-methylhexahydro-pyrimidin-4-one hydrochloride]	297	
